{"source": "patent US20180066327A1", "about": "“Methods to Accelerate Wound Healing in Diabetic Subjects” (Joslin Diabetes Center, Inc., priority 2015, published 2018)", "format_in_all_cases": "cell-based, human", "key": {"Medalist fibroblasts [1]": {"tested_on": "Medalist fibroblasts", "test": "VEGF protein secreted to the medium (ELISA)", "from_the_text": "Skin were obtained from 26 Medalists with various complications and from 7 age-matched non-diabetic controls during post-mortem period. Primary fibroblast cultures were derived from human skin samples, sustained in DMEM (10-027, Cellgro Inc.) supplemented with 10% heat inactivated fetal bovine serum, over a period of 4 weeks, in a 6-well plate, with media supplementation every other day. Subsequently, as fibroblasts emerged from the primary explant, a brief trypsinization (0.25% Trypsin) was used to separate and further expand the cells in a 10 cm^2 plate. In all experiments fibroblasts were used between passages 2-5.\n(§1) Fibroblasts with passage≦5 were grown and expanded in 10 cm plate with DMEM supplemented with 10% FBS. Cells were stimulated with the conditions and compounds as indicated after overnight starvation in DMEM with 0.1% BSA without FBS. Cells were lysed and protein amounts were measured with BCA kit (Bio-Rad, Hercules, Calif.). Protein lysates (20-30 μg) were separated by SDS-PAGE, transferred, blocked and detected as we described before (Park et al., Mol Cell Biol. 2013 August; 33(16):3227-41). The signal intensity was quantified using ImageJ software (SynGene, Frederick, Md.). For immune precipitation, tissue lysates were incubated with the appropriate antibodies followed by the addition of protein A/G Sepharose beads (Santa Cruz Biotechnology, Inc., Santa Cruz, Calif.). The precipitated proteins were subjected to SDS-PAGE followed by immunoblotting with the appropriate antibodies as described before (Park et al., Mol Cell Biol. 2013 August; 33(16):3227-41).\nThe transfection of siRNA was performed using the Ambion Silencer Select Validated siRNA kit for primary cells (Ambion by Life Technology, Carlsband, Calif.), in 60-70% confluent fibroblast. For evaluating insulin's effect on VEGF production, cells were washed twice with PBS, and starved overnight with DMEM containing 1% BSA. Insulin (100 nM) was added to each for additional 16 h. After incubation, media were collected for VEGF measurement by ELISA and the cell lysate were collected for measuring protein concentration.\nProtein levels of VEGF in the medium were measured using Quantikine R&D System kit (Minneapolis, Minn.). This kit determines mainly VEGF165. Glycated hemoglobin (HbA1c) was determined by HPLC (Tosoh G7 and 2.2, Tokyo, Japan). Serum creatinine was determined by spectrophotometry. Urine albumin and creatinine were determined by turbidimetric methods. Serum C-peptide was determined by RIA (Beckman Coulter, Inc, Fullerton, Calif.)."}, "control fibroblasts [2]": {"tested_on": "control fibroblasts", "test": "VEGF protein secreted to the medium (ELISA)"}, "Medalist fibroblasts [3]": {"tested_on": "Medalist fibroblasts", "test": "VEGF mRNA by real-time PCR", "conditions": "fibroblasts from Medalists, 100 nM insulin", "description": "(§2) Real-time PCR was performed to evaluate mRNA expressions of VEGF, PDGF-B, Fibronectin, and PKCδ in cultured fibroblast and mice granulation tissue as we described before (Geraldes et al., Nat Med. 2009 November; 15(11):1298-306). PCR primers and probes are detailed in Table A. Human 36B4 or 18S ribosomal RNA expressions as indicated were used for normalization."}, "control fibroblasts [4]": {"tested_on": "control fibroblasts", "test": "VEGF mRNA by real-time PCR", "conditions": "fibroblasts from controls, 100 nM insulin", "description": "as §2"}, "Medalist fibroblasts [5]": {"tested_on": "Medalist fibroblasts", "test": "Scratch wound migration assay", "conditions": "10 ng/ml PDGF-BB or 100 nM insulin for 12 h", "description": "(§3) Scratch wound migration assay—100% Confluent starved Medalist or control fibroblasts wounded, followed by incubation with 10 ng/ml PDGF-BB or 100 nM insulin for 12 hours. Phase contrast images of wounded areas were taken at time 0, 4, 6, 8 and 12 hours after stimulation, and migration was determined as described before (Ito et al., Am J Physiol Lung Cell Mol Physiol. 2014 Jul. 1; 307(1):L94-105)."}, "control fibroblasts [6]": {"tested_on": "control fibroblasts", "test": "Scratch wound migration assay", "conditions": "10 ng/ml PDGF-BB or 100 nM insulin for 12 h", "description": "as §3"}, "Medalist fibroblasts [7]": {"tested_on": "Medalist fibroblasts", "test": "p-AKT (Ser473) immunoblot", "conditions": "for p-AKT increase compared to untreated cells: Medalist fibroblasts, 100 nM insulin or 10 ng/ml PDGF-BB for 10 minutes; for p-AKT increase: 100 nM insulin 10 minutes", "description": "as §1"}, "control fibroblasts [8]": {"tested_on": "control fibroblasts", "test": "p-AKT (Ser473) immunoblot", "conditions": "for p-AKT increase compared to untreated cells: 100 nM insulin or 10 ng/ml PDGF-BB for 10 minutes", "description": "as §1"}, "Medalist fibroblasts [9]": {"tested_on": "Medalist fibroblasts", "test": "IRS1 tyrosine phosphorylation immunoblot", "conditions": "100 nM insulin", "description": "as §1"}, "control fibroblasts [10]": {"tested_on": "control fibroblasts", "test": "IRS1 tyrosine phosphorylation immunoblot", "conditions": "fibroblasts of controls, 100 nM insulin", "description": "as §1"}, "Medalist fibroblasts [11]": {"tested_on": "Medalist fibroblasts", "test": "p-Tyr of insulin receptor beta subunit immunoblot", "conditions": "100 nM insulin", "description": "as §1"}, "control fibroblasts [12]": {"tested_on": "control fibroblasts", "test": "p-Tyr of insulin receptor beta subunit immunoblot", "conditions": "controls, 100 nM insulin", "description": "as §1"}, "Medalist fibroblasts [13]": {"tested_on": "Medalist fibroblasts", "test": "VEGF protein secreted to the medium (ELISA)", "conditions": "fibroblasts from Medalists compared to controls; 10 ng/ml TGF for 24 hours"}, "[14]": {"conditions": "fibroblasts of Medalists with CVD"}, "[15]": {"conditions": "fibroblasts of Medalists without CVD"}}}
{"molecule": "COc1cccc(-c2cc(=O)c3ccccc3o2)c1N", "note": "[PD98059]", "values": [{"measurement": "insulin-stimulated VEGF production", "setting": "Medalist fibroblasts [1]; Medalist fibroblasts, 100 nM insulin in presence of 100 nM wortmanin or 10 μM PD98059", "result": "but not PD98059, significantly inhibited"}]}
{"molecule": "insulin", "values": [{"measurement": "VEGF secretion, fold increase", "setting": "Medalist fibroblasts [1]; Ad-GFP infected Medalist fibroblasts, with 100 nM insulin 16 hours", "result": "1.51±0.18", "unit": "fold"}, {"measurement": "VEGF secretion, fold increase above basal", "setting": "Medalist fibroblasts [1]; Medalist fibroblasts, insulin alone, siRNA experiment", "result": "1.28±0.10", "unit": "fold"}, {"measurement": "fold increase in VEGF levels above basal", "setting": "Medalist fibroblasts [1]; Medalist fibroblasts, 100 nM insulin alone, GFX experiment", "result": "1.59±0.10", "unit": "fold"}, {"measurement": "fold increase in VEGF levels above basal", "setting": "Medalist fibroblasts [1]; Medalist fibroblasts, 100 nM insulin alone, rottlerin experiment", "result": "1.50±0.31", "unit": "fold"}, {"measurement": "VEGF protein levels after insulin stimulation", "setting": "Medalist fibroblasts [1]; Medalists with CVD (basal 75.5±13.7)", "result": "106.0±12.0", "unit": "pg/mg protein"}, {"measurement": "VEGF protein levels after insulin stimulation", "setting": "Medalist fibroblasts [1]; Medalists without CVD (basal 57.5±8.5)", "result": "99.1±8.4", "unit": "pg/mg protein"}, {"measurement": "stimulation of VEGF protein", "setting": "Medalist fibroblasts [1]; fibroblasts from Medalists, 100 nM insulin", "result": "failed to significantly stimulate"}, {"measurement": "VEGF production, fold", "setting": "control fibroblasts [2]; Ad-GFP infected control fibroblasts, with 100 nM insulin 16 hours", "result": "2.89±0.67", "unit": "fold"}, {"measurement": "increase in VEGF protein levels", "setting": "control fibroblasts [2]; fibroblasts from controls, 100 nM insulin", "result": 66, "unit": "%"}, {"measurement": "stimulation of VEGF mRNA production", "setting": "Medalist fibroblasts [3]", "result": "failed to significantly stimulate"}, {"measurement": "increase in VEGF mRNA", "setting": "control fibroblasts [4]", "result": 2.4, "unit": "fold"}, {"measurement": "cell migration", "setting": "Medalist fibroblasts [5]", "result": "failed to significantly increase"}, {"measurement": "cell migration", "setting": "control fibroblasts [6]", "result": 1.7, "unit": "fold"}, {"measurement": "p-AKT increase compared to untreated cells", "setting": "Medalist fibroblasts [7]", "result": 2, "unit": "fold"}, {"measurement": "p-AKT increase", "setting": "Medalist fibroblasts [7]; [14]", "result": 1.8, "unit": "fold"}, {"measurement": "p-AKT increase", "setting": "Medalist fibroblasts [7]; [15]", "result": 2.4, "unit": "fold"}, {"measurement": "p-AKT increase", "setting": "control fibroblasts [8]; 100 nM insulin 10 minutes (CVD comparison experiment)", "result": 4.0, "unit": "fold"}, {"measurement": "p-AKT increase compared to untreated cells", "setting": "control fibroblasts [8]", "result": 3.6, "unit": "fold"}, {"measurement": "IRS1 tyrosine phosphorylation at site 649 (p-Tyr649), increase", "setting": "Medalist fibroblasts [9]; [14]", "result": 34, "unit": "%"}, {"measurement": "IRS1 tyrosine phosphorylation at site 911 (p-Tyr911), increase", "setting": "Medalist fibroblasts [9]; [14]", "result": 26, "unit": "%"}, {"measurement": "IRS1 tyrosine phosphorylation at site 649 (p-Tyr649), increase", "setting": "Medalist fibroblasts [9]; [15]", "result": 63, "unit": "%"}, {"measurement": "IRS1 tyrosine phosphorylation at site 911 (p-Tyr911), increase", "setting": "Medalist fibroblasts [9]; [15]", "result": 40, "unit": "%"}, {"measurement": "IRS1 tyrosine phosphorylation at site 649 (p-Tyr649), increase", "setting": "control fibroblasts [10]", "result": 53, "unit": "%"}, {"measurement": "IRS1 tyrosine phosphorylation at site 911 (p-Tyr911), increase", "setting": "control fibroblasts [10]", "result": 52, "unit": "%"}, {"measurement": "p-Tyr of the insulin receptor beta subunit, increase", "setting": "Medalist fibroblasts [11]; Medalists with CVD", "result": 4.7, "unit": "fold"}, {"measurement": "p-Tyr of the insulin receptor beta subunit, increase", "setting": "Medalist fibroblasts [11]; Medalists without CVD", "result": 4.9, "unit": "fold"}, {"measurement": "p-Tyr of the insulin receptor beta subunit, increase", "setting": "control fibroblasts [12]", "result": 5.2, "unit": "fold"}]}
{"molecule": "CN(C)C[C@@H]1CCn2cc(c3ccccc32)C2=C(C(=O)NC2=O)c2cn(c3ccccc23)CCO1", "note": "[RBX, Ruboxistaurin]", "values": [{"measurement": "insulin stimulated VEGF secretion", "setting": "Medalist fibroblasts [1]; Medalist fibroblasts, 100 nM insulin with 100 nM RBX", "result": "failed to increase"}]}
{"molecule": "TGF-β", "values": [{"measurement": "VEGF induced by TGF-β", "setting": "Medalist fibroblasts [13]", "result": "blunted"}]}
{"molecule": "CN(C)CCCn1cc(C2=C(c3c[nH]c4ccccc34)C(=O)NC2=O)c2ccccc21", "note": "[GFX, 2[1-(3-dimethylaminopropyl)-1H-indol-3-yl]-3-(1H-indol-3-yl)-maleimide]", "values": [{"measurement": "fold increase in VEGF levels above basal", "setting": "Medalist fibroblasts [1]; Medalist fibroblasts, inhibitor + 100 nM insulin (10 mM GFX or 3 uM rottlerin)", "result": "4.74±0.94", "unit": "fold"}, {"measurement": "fold increase in VEGF levels above basal", "setting": "Medalist fibroblasts [1]; Medalist fibroblasts, inhibitor alone, no insulin (10 mM GFX or 3 uM rottlerin)", "result": "2.55±0.43", "unit": "fold"}]}
{"molecule": "CC(=O)c1c(O)c(C)c(O)c(Cc2c(O)c3c(c(C(=O)/C=C/c4ccccc4)c2O)OC(C)(C)C=C3)c1O", "note": "[rottlerin, Rottlerin]", "values": [{"measurement": "fold increase in VEGF levels above basal", "setting": "Medalist fibroblasts [1]; Medalist fibroblasts, inhibitor + 100 nM insulin (GFX or 3 uM rottlerin)", "result": "5.25±0.56", "unit": "fold"}, {"measurement": "fold increase in VEGF levels above basal", "setting": "Medalist fibroblasts [1]; Medalist fibroblasts, inhibitor alone, no insulin (GFX or 3 uM rottlerin)", "result": "3.74±0.49", "unit": "fold"}]}
{"molecule": "PDGF-BB: platelet-derived growth factor, 10 ng/ml stimulus (protein, UniProt P01127 82-190, looked up, homodimer BB, platelet-derived growth factor, 10 ng/ml stimulus) Platelet-derived growth …: SLGSLTIAEPAMIAECKTRTEVFEISRRLIDRTNANFLVWPPCVEVQRCSGCCNNRNVQCRPTQVQLRPVQVRKIEIVRKKPIFKKATVTLEDHLACKCETVAAARPVT", "values": [{"measurement": "cell migration", "setting": "Medalist fibroblasts [5]", "result": "increased cell migration significantly"}, {"measurement": "cell migration", "setting": "control fibroblasts [6]", "result": "increased cell migration significantly"}, {"measurement": "p-AKT increase compared to untreated cells", "setting": "Medalist fibroblasts [7]", "result": 7, "unit": "fold"}, {"measurement": "p-AKT increase compared to untreated cells", "setting": "control fibroblasts [8]", "result": 7, "unit": "fold"}]}
